“Also recorded” adds a separate entry of the source. No end group written: not given here.
Assays:
hMRP5-Δ1-94 [1] = molecular target: T1, hMRP5-Δ1-94 (Homo sapiens, UniProt O15440); assay: MST binding assay, hMRP5-Δ1-94; settings: MST, digitonin-purified hMRP5-Δ1-94, 15 min at room temperature
T1 construct: The codon-optimized full-length human ABCC5 gene encoding the MRP5 protein (UniProt ID: O15440); 8xHis (C); 2xstrep (C); made in house; host or cells: HEK293F
Description: We monitored the binding of different peptides to digitonin-purified hMRP5-Δ1-94-8xHis by MST assay (Monolith NT). HEPES buffer was used to replace Tris buffer during protein purification in the MST assay. The purified protein was mixed with RED-tris-NTA 2nd Generation dye (NanoTemper, MO-L018). Next, serially diluted peptides were mixed with the labeled protein. The mixtures were incubated for 15 min at room temperature, then the capillaries were loaded and the samples were assessed at 3% LED/excitation power and medium MST power. All peptides used in this study were synthesized in GL Biochem (Shanghai). The peptide sequence is provided as Source Data 5. The MST data were analyzed with MO.Affinity Analysis software.

hMRP5-Δ1-94 [2] = molecular target: T1, hMRP5-Δ1-94; assay: cryo-EM of the reconstituted peptide complex; type: binding; settings: peptide and hMRP5-Δ1-94 at 2:1 ratio, on ice, 1 h; inward-open complex
Description: To assess if D35C-E75C can structurally block the transport pathway, we incubated it with hMRP5-Δ1-94 at a 2:1 ratio for in vitro reconstitution. The resulting high-resolution structure of the reconstituted complex maintained an inward-open conformation with both NBDs separated (Fig. 4c and Supplementary Fig. 7a–d). […] Given its ability to effectively occlude the binding pocket, we termed the D35C-E75C peptide MRP5 potential peptide inhibitor (M5PI).
Freshly purified MRP5 protein was concentrated to ~5 mg/ml. Then, 5 μl proteins were added to the freshly glow-discharged (0.39 mBar air, 15 mA, 50 s) holey carbon grid (Quantifoil Au R1.2/1.3, 300 mesh). The grids were plunge-frozen in liquid ethane using an FEI Vitrobot Mark IV (Thermo Fisher Scientific) under the following conditions: waiting time, 11 s; blot time, 4 s; blot force, −2; temperature, 10 °C; and humidity, 100%. Next, the grids were transferred to and stored in liquid nitrogen until data acquisition. For the peptide M5PI-bound complex, the peptide and hMRP5-Δ1-94 were incubated together on ice at a ratio of 2:1 for 1 h before vitrification. […]
The single-particle analysis procedures for all states are summarized in the supplementary information (Supplementary Figs. 1, 2, 4, 5, 7 and 8). […] The overall resolution of the final map was determined by the 0.143 criterion of the gold-standard Fourier shell correlation. […]

T1 sequence (O15440 95-1437 limits assumed, stated change not applied): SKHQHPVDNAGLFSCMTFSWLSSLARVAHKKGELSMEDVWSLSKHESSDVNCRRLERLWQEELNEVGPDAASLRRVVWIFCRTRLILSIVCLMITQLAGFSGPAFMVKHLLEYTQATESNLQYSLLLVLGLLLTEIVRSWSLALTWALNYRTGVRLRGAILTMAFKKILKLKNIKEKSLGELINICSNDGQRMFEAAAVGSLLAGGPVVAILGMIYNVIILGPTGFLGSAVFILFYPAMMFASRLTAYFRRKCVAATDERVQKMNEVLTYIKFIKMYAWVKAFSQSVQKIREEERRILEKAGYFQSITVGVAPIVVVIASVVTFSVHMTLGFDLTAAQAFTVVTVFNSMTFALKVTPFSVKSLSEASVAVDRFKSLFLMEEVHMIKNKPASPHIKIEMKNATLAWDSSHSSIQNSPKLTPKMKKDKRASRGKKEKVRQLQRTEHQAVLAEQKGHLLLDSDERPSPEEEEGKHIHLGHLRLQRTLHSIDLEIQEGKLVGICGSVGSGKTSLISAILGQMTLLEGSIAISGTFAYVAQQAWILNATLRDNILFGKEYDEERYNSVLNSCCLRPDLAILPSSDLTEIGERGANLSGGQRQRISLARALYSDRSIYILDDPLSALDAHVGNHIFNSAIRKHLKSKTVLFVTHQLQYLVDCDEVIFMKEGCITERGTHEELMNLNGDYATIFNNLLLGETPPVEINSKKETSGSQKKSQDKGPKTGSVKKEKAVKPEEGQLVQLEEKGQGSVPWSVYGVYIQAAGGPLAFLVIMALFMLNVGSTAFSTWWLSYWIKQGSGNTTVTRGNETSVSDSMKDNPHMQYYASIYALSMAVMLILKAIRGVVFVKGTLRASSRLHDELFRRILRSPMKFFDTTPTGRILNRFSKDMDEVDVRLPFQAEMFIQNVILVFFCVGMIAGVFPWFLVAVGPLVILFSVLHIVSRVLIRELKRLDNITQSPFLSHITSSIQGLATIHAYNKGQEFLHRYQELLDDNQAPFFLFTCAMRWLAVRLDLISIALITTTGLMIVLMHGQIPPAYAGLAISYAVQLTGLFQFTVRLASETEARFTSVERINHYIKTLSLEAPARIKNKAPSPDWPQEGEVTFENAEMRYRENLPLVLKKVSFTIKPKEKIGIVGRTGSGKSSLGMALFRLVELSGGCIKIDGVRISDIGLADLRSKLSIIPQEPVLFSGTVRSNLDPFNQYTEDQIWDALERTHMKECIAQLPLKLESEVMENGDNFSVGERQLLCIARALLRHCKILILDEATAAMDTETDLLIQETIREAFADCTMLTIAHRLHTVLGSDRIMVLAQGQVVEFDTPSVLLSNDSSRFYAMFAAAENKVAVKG

CSKFRRTRPLECQDALETAARAEGLSLDASMHSQLRILDEC (cysteines drawn unpaired) [M5PI]
binding affinity to hMRP5, in words (hMRP5-Δ1-94 [1]): stronger hMRP5 affinity than selected anticancer drugs | binding affinity to hMRP5, in words (hMRP5-Δ1-94 [1]; listed as Cys35-Cys75 peptide): higher affinity for hMRP5 compared to the original Asp35-Glu75 peptide | binding affinity to hMRP5, in words (hMRP5-Δ1-94 [1]; listed as D35C-E75C): highest affinity for hMRP5 among these peptides; also recorded: higher binding affinity to hMRP5 than the well-studied substrate doxorubicin and inhibitor trequinsin | EM density of bound peptide (hMRP5-Δ1-94 [2]): clear EM density for the bound D35C-E75C peptide in the central cavity
